Values quoted from earlier work, collected in patent US7074832B2, “Compositions containing antimicrobials and urea for the treatment of dermatological disorders and methods for their use” (Bradley Pharmaceuticals, Inc., priority 2001, dated 2006).
≈ marks a conversion by molar mass, not a printed value.

Experiments:
cyclooxygenase = settings: qualitative statement in the description

Row | Compound | cyclooxygenase activity inhibition (cyclooxygenase) | solubility in alcohol (alcohol) | solubility in water (water, 20° C.)
1 | Cc1c(O)cc2c(c1C)OC(C)(CCC(=O)O)CC2 (stereo not drawn) [gamma-CEHC, 2,7,8-trimethyl-2-(beta-carboxyethyl)-6-hydroxychroman] | inhibit cyclooxygenase activity | – | –
2 | Cc1c(O)cc2c(c1C)O[C@](C)(CCC[C@H](C)CCC[C@H](C)CCCC(C)C)CC2 [gamma tocopherol] | inhibit cyclooxygenase activity | – | –
3 | Cc1c(C)c2c(c(C)c1O)CC[C@@](C)(CCC[C@H](C)CCC[C@H](C)CCCC(C)C)O2 [alpha tocopherol] | not | – | –
4 | Cc1ncc([N+](=O)[O-])n1CCO [Metronidazole, 2-methyl-5-nitro-1H-imidazole-1-ethanol] | – | slightly soluble | 10000 µg/mL (≈ 58.4 mM)
